The assay deals with T1, human μ opiate receptor (Homo sapiens, UniProt P35372).
T1 construct: purchased PerkinElmer Life Sciences, Zaventem, Belgium RB-HOM; host or cells: CHO-K1 cells (membrane preparation)
Description: Affinity for the human μ opiate receptor ([3H]-naloxone displacement, CHO-K1 receptor membrane preparation, SPA). As to conditions: test concentration of 1 μM; read-out: μ (binding on the μ opioid receptor, % inhibition). The class given is binding. The essentials: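 Readout is percent displacement of [3H]-naloxone (1 nmol/l) from human μ receptor in CHO-K1 membranes, measured at 1 μmol/l compound. Incubation runs 90 minutes at room temperature with WGA-SPA beads in Tris-HCl/BSA buffer; non-specific binding is defined with 100 μmol/l naloxone.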

For 27 compounds, inhibition results are on record in patent publication US8106055B2, “Substituted amide compounds” (Gruenenthal GmbH, priority 2007, dated 2012).

The inhibition is the share of the control response that was lost under treatment.

T1 sequence (P35372 whole entry): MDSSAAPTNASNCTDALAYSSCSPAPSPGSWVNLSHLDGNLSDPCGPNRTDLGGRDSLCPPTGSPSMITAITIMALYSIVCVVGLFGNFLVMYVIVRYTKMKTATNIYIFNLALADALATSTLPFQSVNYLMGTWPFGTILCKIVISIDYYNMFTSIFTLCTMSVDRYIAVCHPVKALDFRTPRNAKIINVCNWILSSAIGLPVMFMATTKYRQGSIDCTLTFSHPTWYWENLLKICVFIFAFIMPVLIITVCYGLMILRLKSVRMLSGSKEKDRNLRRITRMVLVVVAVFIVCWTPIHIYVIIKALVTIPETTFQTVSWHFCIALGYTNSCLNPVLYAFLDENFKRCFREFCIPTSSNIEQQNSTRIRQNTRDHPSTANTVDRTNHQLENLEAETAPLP

Consider `COc1cc(C)c(S(=O)(=O)N2CCN(CCOCC(=O)NC3CCC(C(c4ccccc4)N(C)C)CC3)CC2)c(C)c1C` (stereo not drawn) [Example 20, N-(4-((dimethylamino)(phenyl)methyl)cyclohexyl)-2-(2-(4-(4-methoxy-2,3,6-trimethylphenylsulfonyl)piperazin-1-yl)ethoxy)acetamide], for which the inhibition at 1 µM worked out at 97%. As for `CN(C)C(c1cccs1)C1CCC(CCNC(=O)COC2CCN(S(=O)(=O)c3ccc(Cl)cc3Cl)C2)CC1` (stereo not drawn) [Example 21, 2-(1-(2,4-dichlorophenylsulfonyl)pyrrolidin-3-yloxy)-N-(2-(4-((dimethylamino)(thiophen-2-yl)methyl)cyclohexyl)ethyl)acetamide], the figure is 97%.

In the case of `COc1ccc(S(=O)(=O)N2CCC(OCC(=O)NCC3CCC(C(c4ccccc4)N(C)C)CC3)C2)cc1OC` (stereo not drawn) [Example 22, 2-(1-(3,4-dimethoxyphenylsulfonyl)pyrrolidin-3-yloxy)-N-((4-((dimethylamino)(phenyl)methyl)cyclohexyl)methyl)acetamide], the inhibition at 1 µM was determined as 97%. The result for `COc1ccc(S(=O)(=O)N2CCC(OCC(=O)NCC3CCC(C(c4cccs4)N(C)C)CC3)C2)cc1OC` (stereo not drawn) [Example 23, 2-(1-(3,4-dimethoxyphenylsulfonyl)pyrrolidin-3-yloxy)-N-((4-((dimethylamino)(thiophen-2-yl)methyl)cyclohexyl)methyl)acetamide] reads 97%; that for `CN(C)C(c1cccs1)C1CCC(CNC(=O)COC2CCN(S(=O)(=O)c3cccc(C(F)(F)F)c3)C2)CC1` (stereo not drawn) [Example 25, N-((4-((dimethylamino)(thiophen-2-yl)methyl)cyclohexyl)methyl)-2-(1-(3-(trifluoromethyl)phenylsulfonyl)pyrrolidin-3-yloxy)acetamide], 97%; that for `Cc1cc(C)c(S(=O)(=O)N2CCC(OCC(=O)NCC3CCC(C(c4ccccc4)N(C)C)CC3)C2)c(C)c1` (stereo not drawn) [Example 26, N-((4-((dimethylamino)(phenyl)methyl)cyclohexyl)methyl)-2-(1-(mesitylsulfonyl)pyrrolidin-3-yloxy)acetamide], 97%.

Consider `Cc1cc(C)c(S(=O)(=O)N2CCC(OCC(=O)NCC3CCC(C(c4cccs4)N(C)C)CC3)C2)c(C)c1` (stereo not drawn) [Example 27, N-((4-((dimethylamino)(thiophen-2-yl)methyl)cyclohexyl)methyl)-2-(1-(mesitylsulfonyl)pyrrolidin-3-yloxy)acetamide], for which the inhibition at 1 µM came out at 97%. As for `CN(C)C(c1cccs1)C1CCC(NC(=O)COC2CCN(S(=O)(=O)c3ccc(F)cc3)C2)CC1` (stereo not drawn) [Example 28, N-(4-((dimethylamino)(thiophen-2-yl)methyl)cyclohexyl)-2-(1-(4-fluorophenylsulfonyl)pyrrolidin-3-yloxy)acetamide], the figure is 97%; as for `COc1cc(C)c(S(=O)(=O)N2CCCC(OCC(=O)NCC3CCC(C(c4ccccc4)N(C)C)CC3)C2)c(C)c1C` (stereo not drawn) [Example 29, N-((4-((dimethylamino)(phenyl)methyl)cyclohexyl)methyl)-2-(1-(4-methoxy-2,3,6-trimethylphenylsulfonyl)piperidin-3-yloxy)acetamide], 97%. As to `COc1ccc(S(=O)(=O)N2CCCCC2COCC(=O)NCCC2CCC(C(c3cccs3)N(C)C)CC2)cc1` (stereo not drawn) [Example 30, N-(2-(4-((dimethylamino)(thiophen-2-yl)methyl)cyclohexyl)ethyl)-2-((1-(4-methoxyphenylsulfonyl)piperidin-2-yl)methoxy)acetamide], the inhibition at 1 µM came out at 97%.

As for `CN(C)C(c1cccs1)C1CCC(CNC(=O)COC2CCCCC2N(C)S(=O)(=O)c2ccc(Cl)c(Cl)c2)CC1` (stereo not drawn) [Example 31, 2-(2-(3,4-dichloro-N-methylphenylsulfonamido)cyclohexyloxy)-N-((4-((dimethylamino)(thiophen-2-yl)methyl)cyclohexyl)methyl)acetamide], the inhibition at 1 µM is 97%. Turning to `CN(C)C(c1cccs1)C1CCC(CCNC(=O)COCCN(C)S(=O)(=O)c2cccc(C(F)(F)F)c2)CC1` (stereo not drawn) [Example 32, N-(2-(4-((dimethylamino)(thiophen-2-yl)methyl)cyclohexyl)ethyl)-2-(2-(N-methyl-3-(trifluoromethyl)phenylsulfonamido)ethoxy)acetamide], the inhibition at 1 µM stood at 97%. As for `CN(C)C(c1ccccc1)C1CCC(NC(=O)COCCN(C)S(=O)(=O)c2ccc(Cl)cc2Cl)CC1` (stereo not drawn) [Example 33, 2-(2-(2,4-dichloro-N-methylphenylsulfonamido)ethoxy)-N-(4-((dimethylamino)(phenyl)methyl)cyclohexyl)acetamide], the figure is 49%; as for `CN(C)C(c1ccccc1)C1CCC(NC(=O)COCCN(C)S(=O)(=O)c2c(F)c(F)c(F)c(F)c2F)CC1` (stereo not drawn) [Example 136, N-(4-((dimethylamino)(phenyl)methyl)cyclohexyl)-2-(2-(2,3,4,5,6-pentafluoro-N-methylphenylsulfonamido)ethoxy)acetamide], 89%; as for `COc1cc(C)c(S(=O)(=O)N(C)CCOCC(=O)NCC2CCC(C(c3ccccc3)N(C)C)CC2)c(C)c1` (stereo not drawn) [Example 137, N-((4-((dimethylamino)(phenyl)methyl)cyclohexyl)methyl)-2-(2-(4-methoxy-N,2,6-trimethylphenylsulfonamido)ethoxy)acetamide], 89%. The result for `CN(C)C(c1cccs1)C1CCC(CCNC(=O)COC2CCN(S(=O)(=O)c3ccc(F)cc3)C2)CC1` (stereo not drawn) [Example 138, N-(2-(4-((dimethylamino)(thiophen-2-yl)methyl)cyclohexyl)ethyl)-2-(1-(4-fluorophenylsulfonyl)pyrrolidin-3-yloxy)acetamide] reads 87%; that for `CN(C)C(c1cccc(F)c1)C1CCC(NC(=O)COC2CCN(S(=O)(=O)c3cccc(C(F)(F)F)c3)C2)CC1` (stereo not drawn) [Example 139, N-(4-((dimethylamino)(3-fluorophenyl)methyl)cyclohexyl)-2-(1-(3-(trifluoromethyl)phenylsulfonyl)pyrrolidin-3-yloxy)acetamide], 83%; that for `Cc1cc(C)c(S(=O)(=O)N2CCC(OCC(=O)NC3CCC(C(c4cccc(F)c4)N(C)C)CC3)C2)c(C)c1` (stereo not drawn) [Example 140, N-(4-((dimethylamino)(3-fluorophenyl)methyl)cyclohexyl)-2-(1-(mesitylsulfonyl)pyrrolidin-3-yloxy)acetamide], 83%.

As for `Cc1cc(C)c(S(=O)(=O)N2CCC(OCC(=O)NCC3CCC(C(c4cccc(F)c4)N(C)C)CC3)C2)c(C)c1` (stereo not drawn) [Example 141, N-((4-((dimethylamino)(3-fluorophenyl)methyl)cyclohexyl)methyl)-2-(1-(mesitylsulfonyl)pyrrolidin-3-yloxy)acetamide], the inhibition at 1 µM was found to be 88%. In the case of `COc1ccc(S(=O)(=O)N(C)CCOCC(=O)NCC2CCC(C(c3cccs3)N(C)C)CC2)cc1` (stereo not drawn) [Example 142, N-((4-((dimethylamino)(thiophen-2-yl)methyl)cyclohexyl)methyl)-2-(2-(4-methoxy-N-methylphenylsulfonamido)ethoxy)acetamide], the inhibition at 1 µM stood at 89%. As for `COc1cc(C)c(S(=O)(=O)N2CCC(OCC(=O)NCC3CCC(C(c4ccccc4)N(C)C)CC3)CC2)c(C)c1C` (stereo not drawn) [Example 143, N-((4-((dimethylamino)(phenyl)methyl)cyclohexyl)methyl)-2-(1-(4-methoxy-2,3,6-trimethylphenylsulfonyl)piperidin-4-yloxy)acetamide], the inhibition at 1 µM came out at 89%. As to `COc1cc(C)c(S(=O)(=O)N2CCCC(OCC(=O)NC3CCC(C(c4cccs4)N(C)C)CC3)C2)c(C)c1C` (stereo not drawn) [Example 144, N-(4-((dimethylamino)(thiophen-2-yl)methyl)cyclohexyl)-2-(1-(4-methoxy-2,3,6-trimethylphenylsulfonyl)piperidin-3-yloxy)acetamide], the inhibition at 1 µM was 89%. The result for `COc1cc(C)c(S(=O)(=O)N2CCCC(OCC(=O)NCC3CCC(C(c4cccc(F)c4)N(C)C)CC3)C2)c(C)c1C` (stereo not drawn) [Example 145, N-((4-((dimethylamino)(3-fluorophenyl)methyl)cyclohexyl)methyl)-2-(1-(4-methoxy-2,3,6-trimethylphenylsulfonyl)piperidin-3-yloxy)acetamide] reads 87%; that for `COc1cc(C)c(S(=O)(=O)N2CCC(CCOCC(=O)NCC3CCC(C(c4ccccc4)N(C)C)CC3)CC2)c(C)c1C` (stereo not drawn) [Example 146, N-((4-((dimethylamino)(phenyl)methyl)cyclohexyl)methyl)-2-(2-(1-(4-methoxy-2,3,6-trimethylphenylsulfonyl)piperidin-4-yl)ethoxy)acetamide], 88%. As for `CN(C)C(c1cccc(F)c1)C1CCC(CCNC(=O)COCC2CCCCN2S(=O)(=O)c2ccc(Cl)c(Cl)c2)CC1` (stereo not drawn) [Example 147, 2-((1-(3,4-dichlorophenylsulfonyl)piperidin-2-yl)methoxy)-N-(2-(4-((dimethylamino)(3-fluorophenyl)methyl)cyclohexyl)ethyl)acetamide], the figure is 90%; as for `COc1cc(C)c(S(=O)(=O)N(CCOCC(=O)NCC2CCC(C(c3ccccc3)N(C)C)CC2)Cc2ccccc2)c(C)c1` (stereo not drawn) [Example 148, 2-(2-(N-benzyl-4-methoxy-2,6-dimethylphenylsulfonamido)ethoxy)-N-((4-((dimethylamino)(phenyl)methyl)cyclohexyl)methyl)acetamide], 90%. As for `COc1cc(C)c(S(=O)(=O)N(CCOCC(=O)NCCC2CCC(C(c3cccs3)N(C)C)CC2)Cc2ccccc2)c(C)c1` (stereo not drawn) [Example 149, 2-(2-(N-benzyl-4-methoxy-2,6-dimethylphenylsulfonamido)ethoxy)-N-(2-(4-((dimethylamino) (thiophen-2-yl)methyl)cyclohexyl)ethyl)acetamide], the figure is 91%.
